From patent US6274620A, “Thiophene integrin inhibitors” (BioChem Pharma Inc., priority 2000, dated 2001)
Where a name gives a salt, the structure may show the parent alone.

Legend:
αvβ3 [1] = biological target: T1, αvβ3 (Homo sapiens, UniProt P05106+P06756); assay: Solid-phase assay: biotinylated-fibrinogen binding to immobilized αvβ3; set-up: placental αvβ3; from tissue; host or cells: placenta; details: for IC50: Solid Phase Assay, biotinylated-fibrinogen 10 nM, 2 hours at 37° C; for Selectivity: αIIbβ3 vs αvβ3 solid phase IC50
T1 sequence (P06756 31-889 limits assumed): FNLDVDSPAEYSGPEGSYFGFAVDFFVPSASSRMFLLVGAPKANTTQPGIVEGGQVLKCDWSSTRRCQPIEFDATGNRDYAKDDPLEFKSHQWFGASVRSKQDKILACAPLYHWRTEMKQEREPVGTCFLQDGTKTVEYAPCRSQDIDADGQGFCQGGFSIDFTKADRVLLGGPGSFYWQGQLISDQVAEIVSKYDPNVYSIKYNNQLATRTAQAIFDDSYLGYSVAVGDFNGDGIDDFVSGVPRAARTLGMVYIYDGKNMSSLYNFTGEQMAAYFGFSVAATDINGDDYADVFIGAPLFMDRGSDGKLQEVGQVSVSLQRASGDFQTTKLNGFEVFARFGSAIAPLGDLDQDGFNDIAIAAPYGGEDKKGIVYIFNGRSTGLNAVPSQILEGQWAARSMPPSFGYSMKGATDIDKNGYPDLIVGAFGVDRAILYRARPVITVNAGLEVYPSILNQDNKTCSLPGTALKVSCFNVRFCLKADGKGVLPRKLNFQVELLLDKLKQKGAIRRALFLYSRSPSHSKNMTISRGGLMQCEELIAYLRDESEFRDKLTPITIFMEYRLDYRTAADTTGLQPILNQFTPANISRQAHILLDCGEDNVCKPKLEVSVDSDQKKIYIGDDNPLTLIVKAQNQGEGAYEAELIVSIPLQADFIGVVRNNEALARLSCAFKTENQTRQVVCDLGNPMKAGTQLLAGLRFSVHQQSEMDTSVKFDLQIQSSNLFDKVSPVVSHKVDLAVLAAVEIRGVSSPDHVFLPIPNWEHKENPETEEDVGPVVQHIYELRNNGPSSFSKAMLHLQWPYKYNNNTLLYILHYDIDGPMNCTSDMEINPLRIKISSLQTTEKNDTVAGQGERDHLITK
T1 sequence (P06756 891-1048 limits assumed): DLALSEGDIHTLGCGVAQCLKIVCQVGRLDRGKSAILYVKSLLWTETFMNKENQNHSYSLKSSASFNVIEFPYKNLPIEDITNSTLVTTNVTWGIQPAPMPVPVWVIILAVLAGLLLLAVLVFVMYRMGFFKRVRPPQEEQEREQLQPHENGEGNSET
T1 sequence (P05106 27-788): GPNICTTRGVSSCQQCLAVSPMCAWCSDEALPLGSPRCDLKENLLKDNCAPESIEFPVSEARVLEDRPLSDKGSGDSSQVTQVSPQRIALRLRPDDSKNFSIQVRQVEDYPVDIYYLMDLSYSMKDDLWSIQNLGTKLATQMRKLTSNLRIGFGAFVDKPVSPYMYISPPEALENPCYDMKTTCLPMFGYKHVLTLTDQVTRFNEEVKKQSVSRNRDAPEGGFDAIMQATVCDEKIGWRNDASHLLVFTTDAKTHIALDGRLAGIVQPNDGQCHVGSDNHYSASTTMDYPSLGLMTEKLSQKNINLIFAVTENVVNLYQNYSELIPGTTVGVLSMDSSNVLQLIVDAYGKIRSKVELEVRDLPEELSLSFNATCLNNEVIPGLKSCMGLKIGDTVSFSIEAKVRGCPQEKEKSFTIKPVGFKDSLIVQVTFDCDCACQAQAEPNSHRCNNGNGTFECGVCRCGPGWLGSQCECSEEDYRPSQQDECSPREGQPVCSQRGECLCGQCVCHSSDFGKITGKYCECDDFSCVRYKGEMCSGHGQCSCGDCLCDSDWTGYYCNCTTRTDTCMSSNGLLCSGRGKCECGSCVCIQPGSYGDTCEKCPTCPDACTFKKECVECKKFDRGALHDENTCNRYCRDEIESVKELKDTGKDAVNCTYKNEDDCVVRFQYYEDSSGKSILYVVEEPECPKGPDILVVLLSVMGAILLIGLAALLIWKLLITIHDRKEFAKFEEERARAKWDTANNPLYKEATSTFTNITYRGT
Description: (§1) Assay 1. Fibrinogen Binding to Immobilized αIIbβ3 and αvβ3 (Solid-Phase Assays) The wells of plastic microtiter plates were coated overnight at 4° C. with purified active αIIbβ3 (Calbiochem) or placental αvβ3 at 0.5 ug/mL (100 uL/well) in a buffer containing 150 mM NaCl, 20 mM Tris, pH 7.4, 1 mM MgCl2, 0.2 mM MnCl2, and including 1 mM CaCl2 for αIIbβ3 Blocking of nonspecific sites was achieved by incubating the wells with 35 mg/mL bovine serum albumin (BSA) for at least 2 hours at 37° C. Biotinylated-fibrinogen (10 nM) was added in 0.2 mL binding buffer (100 mM NaCl, 50 mM Tris, pH 7.4, 1 mM MgCl2, 0.2 mM MnCl2 and 1 mg/mL BSA including 1 mM CaCl2 for αIIbβ3) to the wells in triplicate in the absence or presence of increasing concentrations of compounds of interest (0.001-100 uM) and further incubated for 2 hours at 37° C. Nonbound fibrinogen was removed by five washes with binding buffer. Avidin conjugated to alkaline phosphatase (Sigma), diluted in binding buffer, was added and incubated for two hours at 37° C. The plates were washed five times with binding buffer, and after addition of the substrate PNPP (Pierce), the enzyme activity was measured by the absorbance at 405 nm. The concentration of inhibitor required to inhibit 50% of biotinylated-fibrinogen binding was defined as IC50 determined by a nonlinear, sigmoidal dose response variable slope from the GraphPad Prism software.

αIIbβ3 = biological target: T2, αIIbβ3 (Homo sapiens, UniProt P05106+P08514); assay: Solid-phase assay: biotinylated-fibrinogen binding to immobilized αIIbβ3; details: biotinylated-fibrinogen 10 nM, 2 hours at 37° C, 1 mM CaCl2, read-out: IC50 αIIbβ
T2 construct: purchased Calbiochem
T2 sequence (P08514 32-887 limits assumed): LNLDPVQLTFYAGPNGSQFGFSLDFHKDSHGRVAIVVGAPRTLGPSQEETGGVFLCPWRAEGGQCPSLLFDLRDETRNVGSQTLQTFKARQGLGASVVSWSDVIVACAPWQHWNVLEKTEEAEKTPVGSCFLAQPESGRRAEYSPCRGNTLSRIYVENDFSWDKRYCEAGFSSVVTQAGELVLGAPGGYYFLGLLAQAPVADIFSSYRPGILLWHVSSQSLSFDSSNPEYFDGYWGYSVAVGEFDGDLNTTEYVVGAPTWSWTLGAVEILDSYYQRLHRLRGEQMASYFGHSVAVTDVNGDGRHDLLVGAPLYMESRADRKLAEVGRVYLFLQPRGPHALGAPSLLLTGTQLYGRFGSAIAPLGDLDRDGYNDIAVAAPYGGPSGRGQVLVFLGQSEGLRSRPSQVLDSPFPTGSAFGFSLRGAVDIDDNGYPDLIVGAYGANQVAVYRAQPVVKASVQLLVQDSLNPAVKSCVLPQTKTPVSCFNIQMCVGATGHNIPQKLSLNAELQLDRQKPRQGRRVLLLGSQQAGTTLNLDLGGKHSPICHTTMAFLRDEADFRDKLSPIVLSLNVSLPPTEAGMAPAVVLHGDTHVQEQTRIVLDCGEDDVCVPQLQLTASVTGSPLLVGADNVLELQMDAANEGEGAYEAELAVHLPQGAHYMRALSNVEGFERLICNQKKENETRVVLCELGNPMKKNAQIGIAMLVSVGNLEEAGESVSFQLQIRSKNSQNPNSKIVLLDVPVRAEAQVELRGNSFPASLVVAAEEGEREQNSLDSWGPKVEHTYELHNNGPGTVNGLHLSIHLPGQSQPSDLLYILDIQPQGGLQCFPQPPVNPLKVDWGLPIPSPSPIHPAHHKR
T2 sequence (P08514 891-1039 limits assumed): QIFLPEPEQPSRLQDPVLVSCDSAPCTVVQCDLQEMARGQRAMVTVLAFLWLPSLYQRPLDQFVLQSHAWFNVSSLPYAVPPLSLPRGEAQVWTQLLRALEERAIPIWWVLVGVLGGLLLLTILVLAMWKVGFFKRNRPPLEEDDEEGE
T2 sequence (P05106 27-788): as the sequence (P05106 27-788) above
Description: Assay 1. Fibrinogen Binding to Immobilized αIIbβ3 and αvβ3
as §1, with “The” for “Assay 1. Fibrinogen Binding to Immobilized αIIbβ3 and αvβ3 (Solid-Phase Assays) The”

αvβ3 [2] = biological target: T1, αvβ3; assay: Cell attachment assay, αvβ3; assay type: cell-based; details: 1 hour at 37° C
Description: (§2) The wells of 96-well plates (Immunolon) were coated, by incubation overnight at 4° C., with 5 ug/mL vitronectin, 2 ug/mL osteopontin, or fibronectin or 10 mg/mL BSA in PBS. The protein solution was flicked out and the wells were blocked with 10 mg/mL BSA (0.1 mL) for 1-2 hours at 37° C. Cells HT29, K562, or K562 transfected with αvβ3 (Blystone et al., 1994) were loaded with a fluorescent marker, 5-chloromethylfluorescein diacetate (Molecular Probes, Eugene, OR) for 1 hour at 37° C., then incubated in fresh medium without the fluorescent marker for 1 hour. Cells were lifted with trypsin-EDTA and washed two times with Hank's balanced salt solution minus cations (Sigma) supplemented with 1 mM MgCl2 Cells (75,000 cells/well) were added to coated plates in triplicate and allowed to attach at 37° C. for 1 hour in the presence or absence of specific antibodies (5 ug/mL) or 10-fold dilutions of compounds of interest starting at 10 uM. Nonadherent cells were removed by gentle washing twice with PBS. The adherent cells were solubilized with 1% triton x-100 and detected using a fluorescence plate reader (DYNEX Technologies). The number of attached cells was calculated based upon standard curves for each cell line used in the experiment. Non-specific cell attachment (attachment to wells coated with BSA) was always less than 5%.

αvβ5 = biological target: T3, αvβ5 (Homo sapiens, UniProt P06756+P18084); assay: Cell attachment assay, αvβ5; assay type: cell-based; details: 1 hour at 37° C
T3 construct: Cells HT29, K562, or K562 transfected with αvβ3; endogenous in cells; host or cells: HT29
T3 sequence (P06756 31-889 limits assumed): as the sequence (P06756 31-889 limits assumed) above
T3 sequence (P06756 891-1048 limits assumed): as the sequence (P06756 891-1048 limits assumed) above
T3 sequence (P18084 24-799): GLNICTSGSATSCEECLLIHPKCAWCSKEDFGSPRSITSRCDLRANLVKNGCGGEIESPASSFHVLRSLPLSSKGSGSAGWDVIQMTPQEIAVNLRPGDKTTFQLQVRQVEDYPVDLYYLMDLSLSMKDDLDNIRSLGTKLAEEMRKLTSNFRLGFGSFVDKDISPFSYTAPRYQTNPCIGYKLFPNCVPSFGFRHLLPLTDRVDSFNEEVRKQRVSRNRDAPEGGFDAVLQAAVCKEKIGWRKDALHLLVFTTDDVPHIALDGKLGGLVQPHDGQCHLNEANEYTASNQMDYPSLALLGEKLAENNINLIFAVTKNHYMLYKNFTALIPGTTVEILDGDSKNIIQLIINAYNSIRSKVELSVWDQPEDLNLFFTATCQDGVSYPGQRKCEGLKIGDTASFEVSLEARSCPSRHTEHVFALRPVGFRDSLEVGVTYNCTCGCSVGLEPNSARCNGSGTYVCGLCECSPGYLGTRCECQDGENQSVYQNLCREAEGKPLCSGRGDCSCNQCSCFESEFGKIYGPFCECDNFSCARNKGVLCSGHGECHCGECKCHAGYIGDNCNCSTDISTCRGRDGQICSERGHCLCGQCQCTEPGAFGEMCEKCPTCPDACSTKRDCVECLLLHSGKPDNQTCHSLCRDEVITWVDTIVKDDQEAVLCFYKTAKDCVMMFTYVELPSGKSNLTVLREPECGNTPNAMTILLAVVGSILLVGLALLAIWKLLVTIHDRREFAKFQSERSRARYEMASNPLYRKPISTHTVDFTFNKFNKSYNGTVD
Description: as §2

α5β1 = biological target: T4, α5β1 (Homo sapiens, UniProt P05556+P08648); assay: Cell attachment assay, α5β1; assay type: cell-based; details: 1 hour at 37° C
T4 construct: Cells HT29, K562, or K562 transfected with αvβ3; endogenous in cells; host or cells: K562
Description: as §2

HMVEC = assay: Cytotoxicity (MTT), HMVEC; assay type: cell-based; details: 72 hours, 5000 cells/well
Description: (§3) Assay 3. Cytotoxicity (MTT)
(§4) The wells of microtiter plates were seeded with 2000 cells/well T24, 2500 cells/well HT29 or 5000 cells/well HMVEC (Cell Systems) in 100 uL, followed by an overnight culture for cell adhesion. The next day, the media is supplemented with 100 uL of 10-fold dilution of compound of interest starting at 10 uM. Following culture for 72 hours, 3-(4, 5-dimethyl-2-thiazolyl)-2, 5-diphenyltetrazolium bromide (MTT; Sigma) at 2 mg/mL was added to each well (50 uL/well) and further incubated for 4 hours at 37° C. The medium was flicked out and 200 uL of a 1:1 solution of ethanol:acetone followed by 25 uL of glycine buffer (0.1 M glycine, 0.1M NaCl, pH 10.5) is added and the color measured by the absorbance at 570 nm.

HT29 = assay: Cytotoxicity (MTT), HT29; assay type: cell-based; details: Homo sapiens, HT-29, 72 hours, 2500 cells/well
Description: as §3, §4

B16F10 = assay: Cytotoxicity (MTT), B16F10; assay type: cell-based; details: Mus musculus, B16-F10, 72 hours
Description: [The source words this procedure for another cell line and reports this cell line under the same test.] as §3, §4

SMILES	IC50 (αvβ3 [1]) [nM]	IC50 (αIIbβ3) [nM]	IC50 (αvβ3 [2]) [nM]	IC50 (αvβ5) [nM]	IC50 (α5β1) [nM]	Selectivity (αvβ3 [1])	IC50 (HMVEC) [nM]	IC50 (HT29) [nM]	IC50 (B16F10) [nM]
N=C(N)NCc1cccc(-c2ccc(C(=O)NC[C@H](NS(=O)(=O)c3ccccc3)C(=O)O)s2)c1 [Compound E-2, 2-Benzenesulfonylamino-3-{[5-(3-guanidinomethyl-phenyl)-thiophene-2-carbonyl]-amino}-propionic acid trifluoroacetic acid salt]	2.7	0.55	0.18	72	640	0.2	200	> 10000	1300
Cc1cc(C)c(S(=O)(=O)N[C@@H](CNC(=O)c2ccc(-c3cccc(CNC(=N)N)c3)s2)C(=O)O)c(C)c1 [Compound F-2, 3-{[5-(3-Guanidinomethyl-phenyl)-thiophene-2-carbonyl]-amino}-2-(2,4,6-trimethyl-benzenesulfonylamino)-propionic acid trifluoroacetic acid salt]	8.2	0.25	2.9	11	71	0.03	31	4600	190
N=C(N)Nc1cccc(-c2ccc(C(=O)NC[C@H](NS(=O)(=O)c3ccccc3)C(=O)O)s2)c1 [Compound K-3, 2-Benzenesulfonylamino-3-{[5-(3-guanidino-phenyl)-thiophene-2-carbonyl]-amino}-propionic acid (trifluoroacetic acid salt)]	1.5	1.4	2.8	6.4	80	1	45	5100	320
Cc1cc(C)c(S(=O)(=O)N[C@@H](CNC(=O)c2ccc(/C=C/CNC(=N)N)s2)C(=O)O)c(C)c1 [Compound U-2, (S)-3-{[5-(3-Guanidino-(E)-propenyl)-thiophene-2-carbonyl]-amino}-2-(2,4,6-trimethyl-benzenesulfonylamino)-propionic acid trifluoroacetic acid salts]	0.5	0.54	1.5	6	6.1	1	26	4800	180

The next lines start with results.

IC50 (αvβ3 [1]) [nM]	IC50 (αIIbβ3) [nM]	IC50 (αvβ3 [2]) [nM]	IC50 (αvβ5) [nM]	IC50 (α5β1) [nM]	Selectivity (αvβ3 [1])	SMILES	IC50 (HMVEC) [nM]	IC50 (HT29) [nM]	IC50 (B16F10) [nM]
104						CCOC(=O)[C@H](CNC(=O)c1ccc(-c2cccc(NC(=N)N)c2)s1)NS(=O)(=O)c1c(C)cc(C)cc1C [AB-2, 5-(3-Guanidino-phenyl)-thiophene-2-carboxylic acid [2-carbamoyl-2-(2,4,6-trimethyl-benzenesulfonylamino)-ethyl]-carboxylic acid ethyl ester]			
36.3						Cc1cc(C)c(S(=O)(=O)NC(CNC(=O)c2ccc(-c3cccc(NC(=N)N)c3)s2)C(N)=O)c(C)c1 (stereo not shown) [AB-4, 5-(3-Guanidino-phenyl)-thiophene-2-carboxylic acid [2-carbamoyl-2-(2,4,6-trimethyl-benzenesulfonylamino)-ethyl]-amide hydrochloride salt]			
290						Cc1cc(C)c(S(=O)(=O)NC(CNC(=O)c2ccc(-c3cccc(NC(=N)N)c3)s2)C(N)=O)c(C)c1 (stereo not shown) [AC-1, 5-(3-Guanidino-phenyl)-thiophene-2-carboxylic acid [2-carbamoyl-2-(2,4,6-trimethyl-benzenesulfonylamino)-ethyl]-amide hydrochloride salt]			
1.9	1.1	0.018	1.6	34	0.6	Cc1cc(C)c(S(=O)(=O)N[C@@H](CNC(=O)c2ccc(-c3cccc(NC(=N)N)c3)s2)C(=O)O)c(C)c1 [Compound M-3, 3-{[5-(3-Guanidino-phenyl)-thiophene-2-carbonyl]-amino}-2-(2,4,6-trimethyl-benzenesulfonylamino)-propionic acid (trifluoroacetic acid salt)]	140	6900	260
360						Cc1cc(C)c(S(=O)(=O)NC(CNC(=O)c2ccc(-c3cccc(NC(=N)N)c3)s2)C(=O)Nc2nccs2)c(C)c1 (stereo not shown) [Compound X-5, 5-(3-Guanidino-phenyl)-thiophene-2-carboxylic acid [2-(thiazol-2-ylcarbamoyl)-2-(2,4,6-trimethyl-benzenesulfonylamino)-ethyl]-amide hydrochloride salt]			
